Laboratory results: patent publication US9079902B2, “Heteroaryl sodium channel inhibitors” (AMGEN INC., priority 2011, dated 2015)
pIC50: −log10 of the molar value. Structures can show the parent of a compound that is named as a salt.

Columns and labels:
[1] = molecular target: Nav 1.7 (Homo sapiens (Human), UniProt Q15858); assay: Nav 1.7 in vitro assay (IonWorks Quattro population patch-clamp); type: cell-based; settings: 293 cells stably transfected with Nav 1.7; for pIC50: 26th pulse to -20 mV, 5 Hz; for inhibition at 4.9 µM: HEK293
Description: (§1) Nav 1.7 and Nav 1.5 In Vitro Assay
(§2) 293 cells stably transfected with either Nav 1.7 or with Nav 1.5 were recorded in population patch-clamp mode with the IonWorks® Quattro automated electrophysiology system in accordance with the manufacturer's specifications (Molecular Devices, LLC, Sunnyvale, Calif.). Sodium channel currents were measured in response to a train of depolarizations that induced successively greater inactivation.
(§3) Cells were held at −110 mV for three seconds (Nav 1.7) or half a second (Nav 1.5) from a holding voltage of −15 mV, then put through a series of 26 pulses of 150 msec duration to −20 mV at a frequency of 5 Hz. Cells were then left unclamped for a period of 3 to 8 minutes while a single concentration of test compound was added. Cells were then reclamped and put through the same voltage protocol. Current at the end of the 26th pulse to −20 mV was subtracted from the peak current evoked by the 26th pulse to −20 mV to correct for leak current. Percent block was calculated for each concentration in duplicate, and IC50 curves were fitted to percent block as a function of concentration.

[2] = molecular target: Nav 1.5 (Homo sapiens (Human), UniProt Q14524); assay: Nav 1.5 in vitro assay (IonWorks Quattro population patch-clamp); type: cell-based; settings: 293 cells stably transfected with Nav 1.5; 26th pulse to -20 mV, 5 Hz
Description: as §1, §2, §3

Sequence of Nav 1.7 (Q15858 whole entry): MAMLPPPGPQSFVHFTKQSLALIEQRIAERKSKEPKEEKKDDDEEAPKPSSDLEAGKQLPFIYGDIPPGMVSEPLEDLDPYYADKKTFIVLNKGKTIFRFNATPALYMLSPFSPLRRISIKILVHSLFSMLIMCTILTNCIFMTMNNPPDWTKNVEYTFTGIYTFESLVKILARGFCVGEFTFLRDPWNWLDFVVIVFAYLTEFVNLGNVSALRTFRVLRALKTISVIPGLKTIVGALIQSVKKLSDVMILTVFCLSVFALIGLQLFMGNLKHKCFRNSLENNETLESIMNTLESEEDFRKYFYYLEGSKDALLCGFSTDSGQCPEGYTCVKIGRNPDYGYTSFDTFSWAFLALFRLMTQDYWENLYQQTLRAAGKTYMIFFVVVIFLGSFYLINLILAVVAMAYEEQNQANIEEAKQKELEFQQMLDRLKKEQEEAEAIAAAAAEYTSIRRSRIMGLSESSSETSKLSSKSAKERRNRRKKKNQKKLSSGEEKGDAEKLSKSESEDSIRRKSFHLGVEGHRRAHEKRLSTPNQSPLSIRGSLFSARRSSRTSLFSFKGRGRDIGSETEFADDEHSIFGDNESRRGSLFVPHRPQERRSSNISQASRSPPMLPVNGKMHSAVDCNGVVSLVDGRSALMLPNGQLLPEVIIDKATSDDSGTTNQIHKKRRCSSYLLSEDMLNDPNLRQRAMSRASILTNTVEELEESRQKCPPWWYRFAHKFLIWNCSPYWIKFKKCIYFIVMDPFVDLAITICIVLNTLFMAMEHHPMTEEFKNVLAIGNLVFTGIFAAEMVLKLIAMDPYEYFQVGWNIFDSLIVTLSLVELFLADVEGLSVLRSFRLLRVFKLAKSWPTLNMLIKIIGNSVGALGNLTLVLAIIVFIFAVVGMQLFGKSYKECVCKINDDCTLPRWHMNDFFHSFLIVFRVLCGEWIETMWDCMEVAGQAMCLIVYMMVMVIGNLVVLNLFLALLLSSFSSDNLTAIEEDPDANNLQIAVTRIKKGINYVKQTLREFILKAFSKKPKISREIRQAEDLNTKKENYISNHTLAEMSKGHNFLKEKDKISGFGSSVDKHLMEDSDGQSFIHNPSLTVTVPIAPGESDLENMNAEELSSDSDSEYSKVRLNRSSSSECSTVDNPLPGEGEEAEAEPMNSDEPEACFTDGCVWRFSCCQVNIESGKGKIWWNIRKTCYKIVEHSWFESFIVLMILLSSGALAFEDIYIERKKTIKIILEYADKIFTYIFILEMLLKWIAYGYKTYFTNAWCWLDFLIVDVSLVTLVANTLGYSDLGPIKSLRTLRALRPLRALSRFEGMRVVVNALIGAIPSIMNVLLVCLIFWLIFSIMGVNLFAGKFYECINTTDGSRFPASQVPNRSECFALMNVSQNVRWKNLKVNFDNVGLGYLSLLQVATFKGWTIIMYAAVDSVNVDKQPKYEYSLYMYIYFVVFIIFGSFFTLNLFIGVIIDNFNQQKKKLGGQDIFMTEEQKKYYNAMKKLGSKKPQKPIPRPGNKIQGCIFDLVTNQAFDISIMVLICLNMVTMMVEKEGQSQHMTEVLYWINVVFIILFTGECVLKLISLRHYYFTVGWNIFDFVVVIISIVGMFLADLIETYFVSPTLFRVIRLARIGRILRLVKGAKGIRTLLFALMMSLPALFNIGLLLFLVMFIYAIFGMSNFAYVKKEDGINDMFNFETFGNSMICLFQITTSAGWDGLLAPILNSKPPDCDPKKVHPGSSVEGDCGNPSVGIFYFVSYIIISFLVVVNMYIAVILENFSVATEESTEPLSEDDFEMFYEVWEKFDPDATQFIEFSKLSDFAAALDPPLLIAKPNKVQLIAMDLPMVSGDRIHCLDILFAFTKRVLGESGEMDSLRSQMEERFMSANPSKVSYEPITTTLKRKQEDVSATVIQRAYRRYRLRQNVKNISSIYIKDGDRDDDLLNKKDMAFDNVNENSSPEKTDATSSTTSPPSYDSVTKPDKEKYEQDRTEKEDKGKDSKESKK
Sequence of Nav 1.5 (Q14524 whole entry): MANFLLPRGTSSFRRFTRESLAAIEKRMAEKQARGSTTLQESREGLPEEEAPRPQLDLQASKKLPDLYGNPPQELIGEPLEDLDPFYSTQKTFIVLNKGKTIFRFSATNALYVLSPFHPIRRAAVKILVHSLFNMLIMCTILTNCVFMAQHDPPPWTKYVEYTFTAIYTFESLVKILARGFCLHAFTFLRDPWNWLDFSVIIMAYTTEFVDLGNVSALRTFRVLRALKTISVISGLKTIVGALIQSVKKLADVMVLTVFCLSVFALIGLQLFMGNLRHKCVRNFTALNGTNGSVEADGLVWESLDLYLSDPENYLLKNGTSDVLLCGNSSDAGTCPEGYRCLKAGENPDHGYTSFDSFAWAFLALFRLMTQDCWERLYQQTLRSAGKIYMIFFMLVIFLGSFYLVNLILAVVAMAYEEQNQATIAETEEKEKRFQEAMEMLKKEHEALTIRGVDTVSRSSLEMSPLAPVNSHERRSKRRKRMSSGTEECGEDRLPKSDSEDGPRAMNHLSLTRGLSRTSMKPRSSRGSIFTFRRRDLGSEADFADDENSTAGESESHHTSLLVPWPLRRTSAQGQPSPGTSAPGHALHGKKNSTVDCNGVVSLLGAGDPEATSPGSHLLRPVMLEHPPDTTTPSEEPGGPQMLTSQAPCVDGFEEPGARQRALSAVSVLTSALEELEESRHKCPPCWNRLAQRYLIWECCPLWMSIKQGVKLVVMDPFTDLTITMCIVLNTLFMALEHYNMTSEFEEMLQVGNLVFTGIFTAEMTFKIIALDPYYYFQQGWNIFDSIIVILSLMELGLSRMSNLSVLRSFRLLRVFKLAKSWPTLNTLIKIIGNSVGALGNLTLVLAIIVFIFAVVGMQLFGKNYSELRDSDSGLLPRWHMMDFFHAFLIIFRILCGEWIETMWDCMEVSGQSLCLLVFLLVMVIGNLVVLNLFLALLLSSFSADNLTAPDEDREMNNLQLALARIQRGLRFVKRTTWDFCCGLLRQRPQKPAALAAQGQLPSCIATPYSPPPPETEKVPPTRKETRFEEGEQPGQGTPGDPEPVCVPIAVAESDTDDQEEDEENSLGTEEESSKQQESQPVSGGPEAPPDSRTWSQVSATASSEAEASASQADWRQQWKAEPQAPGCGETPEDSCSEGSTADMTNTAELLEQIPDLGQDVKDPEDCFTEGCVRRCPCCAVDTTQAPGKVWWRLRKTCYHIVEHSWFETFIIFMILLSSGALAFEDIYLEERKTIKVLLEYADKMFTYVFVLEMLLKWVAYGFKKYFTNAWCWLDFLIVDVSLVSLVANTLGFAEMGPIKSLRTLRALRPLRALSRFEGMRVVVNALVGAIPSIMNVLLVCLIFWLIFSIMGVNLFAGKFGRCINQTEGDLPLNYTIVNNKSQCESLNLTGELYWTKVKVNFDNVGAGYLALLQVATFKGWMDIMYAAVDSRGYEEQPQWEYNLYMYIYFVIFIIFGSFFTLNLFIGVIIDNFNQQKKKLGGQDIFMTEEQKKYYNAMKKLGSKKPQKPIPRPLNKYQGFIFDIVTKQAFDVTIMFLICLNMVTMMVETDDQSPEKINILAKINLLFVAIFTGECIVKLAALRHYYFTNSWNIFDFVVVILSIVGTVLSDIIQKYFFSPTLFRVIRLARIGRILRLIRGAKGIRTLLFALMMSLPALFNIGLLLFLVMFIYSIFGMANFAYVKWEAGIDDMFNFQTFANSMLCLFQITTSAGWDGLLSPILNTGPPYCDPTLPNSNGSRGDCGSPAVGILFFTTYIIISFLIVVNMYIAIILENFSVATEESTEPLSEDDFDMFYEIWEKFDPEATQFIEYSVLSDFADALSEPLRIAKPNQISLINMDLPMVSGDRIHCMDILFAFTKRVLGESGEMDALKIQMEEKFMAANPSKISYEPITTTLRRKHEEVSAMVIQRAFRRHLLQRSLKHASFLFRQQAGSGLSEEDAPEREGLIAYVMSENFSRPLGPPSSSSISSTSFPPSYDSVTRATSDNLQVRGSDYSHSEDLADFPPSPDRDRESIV

pIC50 [1] | inhibition at 4.9 µM [1] | Compound | pIC50 [2]
5.50 | – | Cn1nccc1-c1cc(C(F)(F)F)ccc1-c1cn(C)c2cc(S(=O)(=O)Nc3nccs3)ccc12 [Example 11, 1-Methyl-3-(2-(1-Methyl-1H-Pyrazol-5-yl)-4-(Trifluoromethyl)Phenyl)-N-(Thiazol-2-yl)-1H-Indole-6-Sulfonamide] | < 5.00
6.08 | – | Cn1nccc1-c1cc(C(F)(F)F)ccc1-c1cn(C)c2cc(S(=O)(=O)Nc3ccncn3)ccc12 [Example 12, 1-Methyl-3-(2-(1-Methyl-1H-Pyrazol-5-yl)-4-(Trifluoromethyl)Phenyl)-N-(Pyrimidin-4-yl)-1H-Indole-6-Sulfonamide] | < 5.00
5.73 | – | Cn1nccc1-c1cc(C(F)(F)F)ccc1-c1cn(C)c2cc(S(=O)(=O)Nc3nncs3)ccc12 [Example 13, 1-Methyl-3-(2-(1-Methyl-1H-Pyrazol-5-yl)-4-(Trifluoromethyl)Phenyl)-N-(1,3,4-Thiadiazol-2-yl)-1H-Indole-6-Sulfonamide] | < 5.00
5.48 | – | CC#Cc1cncc(-c2cn(C)c3cc(S(=O)(=O)Nc4ncns4)ccc23)c1 [Example 14, 1-Methyl-3-(5-(Prop-1-Yn-1-yl)Pyridin-3-yl)-N-(1,2,4-Thiadiazol-5-yl)-1H-Indole-6-Sulfonamide] | < 5.00
5.81 | – | Cn1cc(-c2cc(-c3ccncc3)cc(C(F)(F)F)c2)c2ccc(S(=O)(=O)Nc3ncns3)cc21 [Example 15, 1-Methyl-3-(3-(Pyridin-4-yl)-5-(Trifluoromethyl)Phenyl)-N-(1,2,4-Thiadiazol-5-yl)-1H-Indole-6-Sulfonamide] | < 5.00
6.26 | – | Cn1cc(-c2ccc(C(F)(F)F)cc2C#N)c2ccc(S(=O)(=O)Nc3ncns3)cc21 [Example 16, 3-(2-Cyano-4-(Trifluoromethyl)Phenyl)-1-Methyl-N-(1,2,4-Thiadiazol-5-yl)-1H-Indole-6-Sulfonamide] | < 5.00
5.04 | – | Cn1cc(-c2cc(Br)cc(C(F)(F)F)c2)c2ccc(S(=O)(=O)Nc3ncns3)cc21 [Example 17, 3-(3-Bromo-5-(Trifluoromethyl)Phenyl)-1-Methyl-N-(1,2,4-Thiadiazol-5-yl)-1H-Indole-6-Sulfonamide] | < 5.00
7.30 | – | Cn1cc(-c2ccc(C(F)(F)F)cc2-c2ccncc2)c2ccc(S(=O)(=O)Nc3ncns3)cc21 [Example 18, 1-Methyl-3-(2-(Pyridin-4-yl)-4-(Trifluoromethyl)Phenyl)-N-(1,2,4-Thiadiazol-5-yl)-1H-Indole-6-Sulfonamide] | < 5.00
6.58 | – | Cn1cc(-c2ccc(C(F)(F)F)cc2-c2ccn(C3CNC3)n2)c2ccc(S(=O)(=O)Nc3ncns3)cc21 [Example 19, 3-(2-(1-(Azetidin-3-yl)-1H-Pyrazol-3-yl)-4-(Trifluoromethyl)Phenyl)-1-Methyl-N-(1,2,4-Thiadiazol-5-yl)-1H-Indole-6-Sulfonamide Hydrochloride] | < 5.00
– | 36.2% | Cc1sc(NS(=O)(=O)c2ccc3c(-c4ccc(C(F)(F)F)cc4-c4ccnn4C)cn(C)c3c2)nc1C(F)(F)F [Example 20, 1-Methyl-3-(2-(1-Methyl-1H-Pyrazol-5-yl)-4-(Trifluoromethyl)Phenyl)-N-(5-Methyl-4-(Trifluoromethyl)Thiazol-2-yl)-1H-Indole-6-Sulfonamide] | < 5.00
7.43 | – | Cn1cc(-c2ccc(C(F)(F)F)cc2-c2cn[nH]c2)c2ccc(S(=O)(=O)Nc3ncns3)cc21 [Example 21, 3-(2-(1H-Pyrazol-4-yl)-4-(Trifluoromethyl)Phenyl)-1-Methyl-N-(1,2,4-Thiadiazol-5-yl)-1H-Indole-6-Sulfonamide] | < 5.00
7.37 | – | Cn1cc(-c2ccc(C(F)(F)F)cc2C2=CCNCC2)c2ccc(S(=O)(=O)Nc3ncns3)cc21 [Example 22, 1-Methyl-3-(2-(1,2,3,6-Tetrahydropyridin-4-yl)-4-(Trifluoromethyl)Phenyl)-N-(1,2,4-Thiadiazol-5-yl)-1H-Indole-6-Sulfonamide] | < 5.00
6.16 | – | Cn1cc(-c2ccc(C(F)(F)F)cc2Cl)c2ccc(S(=O)(=O)Nc3ncns3)cc21 [Example 23, 3-(2-Chloro-4-(Trifluoromethyl)Phenyl)-1-Methyl-N-(1,2,4-Thiadiazol-5-yl)-1H-Indole-6-Sulfonamide] | < 5.00
5.17 | – | Cn1nccc1-c1cc(C(F)(F)F)ccc1-c1c[nH]c2nc(S(=O)(=O)Nc3ncns3)ccc12 [Example 25, 3-(2-(1-Methyl-1H-Pyrazol-5-yl)-4-(Trifluoromethyl)Phenyl)-N-(1,2,4-Thiadiazol-5-yl)-1H-Pyrrolo[2,3-B]Pyridine-6-Sulfonamide] | 5.07
5.99 | – | Cn1nccc1-c1cc(C(F)(F)F)ccc1-c1cn(C)c2nc(S(=O)(=O)Nc3ncns3)ccc12 [Example 26, 1-Methyl-3-(2-(1-Methyl-1H-Pyrazol-5-yl)-4-(Trifluoromethyl)Phenyl)-N-(1,2,4-Thiadiazol-5-yl)-1H-Pyrrolo [2,3-B]Pyridine-6-Sulfonamide] | < 5.00
6.17 | – | CC(=O)n1cc(-c2ccc(C(F)(F)F)cc2-c2ccnn2C)c2ccc(S(=O)(=O)Nc3ncns3)nc21 [Example 27, 1-Acetyl-3-(2-(1-Methyl-1H-Pyrazol-5-yl)-4-(Trifluoromethyl)Phenyl)-N-(1,2,4-Thiadiazol-5-yl)-1H-Pyrrolo [2,3-B]Pyridine-6-Sulfonamide] | < 5.00
5.86 | – | Cn1nccc1-c1cc(C(F)(F)F)ccc1-c1cn(C)c2cc(S(=O)(=O)Nc3nc(Br)ns3)ccc12 [Example 50, N-(3-Bromo-1,2,4-Thiadiazol-5-Yl)-1-Methyl-3-(2-(1-Methyl-1H-Pyrazol-5-Yl)-4-(Trifluoromethyl)Phenyl)-1H-Indole-6-Sulfonamide] | < 5.00
5.07 | – | Cn1cc(-c2ccncc2Cl)c2ccc(S(=O)(=O)Nc3ncns3)cc21 [Example 51, 3-(3-Chloropyridin-4-Yl)-1-Methyl-N-(1,2,4-Thiadiazol-5-Yl)-1H-Indole-6-Sulfonamide] | < 5.00
6.53 | – | Cn1cc(-c2cccc3c2CCNC3)c2ccc(S(=O)(=O)Nc3ncns3)cc21 [Example 53, 1-Methyl-3-(1,2,3,4-Tetrahydroisoquinolin-5-Yl)-N-(1,2,4-Thiadiazol-5-Yl)-1H-Indole-6-Sulfonamide Hydrochloride] | < 5.00
– | 20.5% | Cn1cc(-c2cnn(C3CC3)c2)c2ccc(S(=O)(=O)Nc3ncns3)cc21 [Example 55, 3-(1-Cyclopropyl-1H-Pyrazol-4-Yl)-1-Methyl-N-(1,2,4-Thiadiazol-5-Yl)-1H-Indole-6-Sulfonamide] | < 5.00
– | 20.8% | COc1cc(-c2cn(C)c3cc(S(=O)(=O)Nc4ncns4)ccc23)c(F)cn1 [Example 56, 3-(5-Fluoro-2-Methoxypyridin-4-Yl)-1-Methyl-N-(1,2,4-Thiadiazol-5-Yl)-1H-Indole-6-Sulfonamide] | < 5.00

Compound | pIC50 [1] | inhibition at 4.9 µM [1] | pIC50 [2]
Cn1cc(-c2cccc3c2CNCC3)c2ccc(S(=O)(=O)Nc3ncns3)cc21 [Example 54, 1-Methyl-3-(1,2,3,4-Tetrahydroisoquinolin-8-Yl)-N-(1,2,4-Thiadiazol-5-Yl)-1H-Indole-6-Sulfonamide Hydrochloride] | 5.79 | – | < 5.00
